Converted amounts (≈) assume the structure as drawn.
What follows are compounds tested on Pseudomonas aeruginosa (assay: Antibacterial activity against Pseudomonas aeruginosa ATCC 27853 assessed as growth inhibition).
Type: functional

MIC [µg/mL] | SMILES
0.05 (≈ 0.0286 µM) | CC(C)C[C@@H]1NC(=O)[C@H](Cc2c[nH]c3ccccc23)NC(=O)[C@H]([C@@H](C)O)NC(=O)[C@@H]2CCCN2C(=O)[C@H]2CCCN2C(=O)[C@H](CCCCN)NC(=O)[C@H](C)NC(=O)[C@H](CCCCN)NC(=O)[C@H](CCCCN)NC(=O)[C@H](Cc2c[nH]c3ccccc23)NC(=O)[C@H](CCCNC(=N)N)NC(=O)[C@H](CCCNC(=N)N)NC(=O)[C@H](CCCCN)NC(=O)[C@H](C)NC1=O
0.03 (≈ 0.0174 µM) | CC(C)C[C@@H]1NC(=O)[C@H](Cc2c[nH]c3ccccc23)NC(=O)[C@H]([C@@H](C)O)NC(=O)[C@@H]2CCCN2C(=O)[C@H]2CCCN2C(=O)[C@H](CCCCN)NC(=O)[C@H](C)NC(=O)[C@H](CCCCN)NC(=O)[C@H](CCCCN)NC(=O)[C@H](Cc2c[nH]c3ccccc23)NC(=O)[C@H](CCCNC(=N)N)NC(=O)[C@H](C)NC(=O)[C@H](CCCCN)NC(=O)[C@H](CCCCN)NC1=O
0.1 (≈ 0.0567 µM) | C[C@@H]1NC(=O)[C@H](CCCCN)NC(=O)[C@H](CCCCN)NC(=O)[C@H](Cc2c[nH]c3ccccc23)NC(=O)[C@H](CCCNC(=N)N)NC(=O)[C@H](CCCNC(=N)N)NC(=O)[C@H](CCCCN)NC(=O)[C@H](CCCCN)NC(=O)[C@H](C)NC(=O)[C@H](Cc2c[nH]c3ccccc23)NC(=O)[C@H]([C@@H](C)O)NC(=O)[C@@H]2CCCN2C(=O)[C@H]2CCCN2C(=O)[C@H](CCCCN)NC1=O
0.06 (≈ 0.0337 µM) | CC(C)C[C@@H]1NC(=O)[C@H](Cc2ccc(O)cc2)NC(=O)[C@H]([C@@H](C)O)NC(=O)[C@@H]2CCCN2C(=O)[C@H]2CCCN2C(=O)[C@H](CCCCN)NC(=O)[C@H](C)NC(=O)[C@H](CCCCN)NC(=O)[C@H](CCCCN)NC(=O)[C@H](Cc2c[nH]c3ccccc23)NC(=O)[C@H](CCCNC(=N)N)NC(=O)[C@H](CCCNC(=N)N)NC(=O)[C@H](CCCCN)NC(=O)[C@H](CCCCN)NC1=O
0.01 (≈ 0.00591 µM) | CC(C)C[C@@H]1NC(=O)[C@H](Cc2c[nH]c3ccccc23)NC(=O)[C@H]([C@@H](C)O)NC(=O)[C@@H]2CCCN2C(=O)[C@H]2CCCN2C(=O)[C@H](CCCCN)NC(=O)[C@H](C)NC(=O)[C@H](CCN)NC(=O)[C@H](CCCN)NC(=O)[C@H](Cc2c[nH]c3ccccc23)NC(=O)[C@H](CCCNC(=N)N)NC(=O)[C@@H](CCCCN)NC(=O)[C@H](CCCN)NC(=O)[C@H](CCN)NC1=O
0.1 (≈ 0.0566 µM) | CC(C)C[C@@H]1NC(=O)[C@H](Cc2c[nH]c3ccccc23)NC(=O)[C@H]([C@@H](C)O)NC(=O)[C@@H]2CCCN2C(=O)[C@H]2CCCN2C(=O)[C@H](CCCCN)NC(=O)[C@H](C)NC(=O)[C@H](CCCCN)NC(=O)[C@H](CCCCN)NC(=O)[C@H](Cc2ccccc2)NC(=O)[C@H](CCCNC(=N)N)NC(=O)[C@H](CCCNC(=N)N)NC(=O)[C@H](CCCCN)NC(=O)[C@H](CCCCN)NC1=O
1 (≈ 0.577 µM) | CC(C)C[C@@H]1NC(=O)[C@H](CC(C)C)NC(=O)[C@H]([C@@H](C)O)NC(=O)[C@@H]2CCCN2C(=O)[C@H]2CCCN2C(=O)[C@H](CCCCN)NC(=O)[C@H](C)NC(=O)[C@H](CCCCN)NC(=O)[C@H](CCCCN)NC(=O)[C@H](Cc2c[nH]c3ccccc23)NC(=O)[C@H](CCCNC(=N)N)NC(=O)[C@H](CCCNC(=N)N)NC(=O)[C@H](CCCCN)NC(=O)[C@H](CCCCN)NC1=O
0.1 (≈ 0.0572 µM) | CC(C)C[C@@H]1NC(=O)[C@H](Cc2c[nH]c3ccccc23)NC(=O)[C@H]([C@@H](C)O)NC(=O)[C@@H]2CCCN2C(=O)[C@H]2CCCN2C(=O)[C@H](CCCCN)NC(=O)[C@H](C)NC(=O)[C@H](CCCCN)NC(=O)[C@H](CCCCN)NC(=O)[C@H](Cc2c[nH]c3ccccc23)NC(=O)[C@H](CCCNC(=N)N)NC(=O)[C@H](CCCNC(=N)N)NC(=O)[C@H](C)NC(=O)[C@H](CCCCN)NC1=O
0.06 (≈ 0.0343 µM) | CC(C)C[C@@H]1NC(=O)[C@H](Cc2c[nH]c3ccccc23)NC(=O)[C@H]([C@@H](C)O)NC(=O)[C@@H]2CCCN2C(=O)[C@H]2CCCN2C(=O)[C@H](CCCCN)NC(=O)[C@H](C)NC(=O)[C@H](CCCCN)NC(=O)[C@H](C)NC(=O)[C@H](Cc2c[nH]c3ccccc23)NC(=O)[C@H](CCCNC(=N)N)NC(=O)[C@H](CCCNC(=N)N)NC(=O)[C@H](CCCCN)NC(=O)[C@H](CCCCN)NC1=O
0.3 (≈ 0.168 µM) | CC(C)C[C@@H]1NC(=O)[C@H](Cc2c[nH]c3ccccc23)NC(=O)[C@H]([C@@H](C)O)NC(=O)[C@@H]2CCCN2C(=O)[C@H]2CCCN2C(=O)[C@H](CCCCN)NC(=O)[C@H](C)NC(=O)[C@H](CCCCN)NC(=O)[C@H](CCCCN)NC(=O)[C@H](Cc2ccc(O)cc2)NC(=O)[C@H](CCCNC(=N)N)NC(=O)[C@H](CCCNC(=N)N)NC(=O)[C@H](CCCCN)NC(=O)[C@H](CCCCN)NC1=O
0.06 (≈ 0.034 µM) | CC(C)C[C@@H]1NC(=O)[C@H](Cc2ccccc2)NC(=O)[C@H]([C@@H](C)O)NC(=O)[C@@H]2CCCN2C(=O)[C@H]2CCCN2C(=O)[C@H](CCCCN)NC(=O)[C@H](C)NC(=O)[C@H](CCCCN)NC(=O)[C@H](CCCCN)NC(=O)[C@H](Cc2c[nH]c3ccccc23)NC(=O)[C@H](CCCNC(=N)N)NC(=O)[C@H](CCCNC(=N)N)NC(=O)[C@H](CCCCN)NC(=O)[C@H](CCCCN)NC1=O
0.06 (≈ 0.0349 µM) | CC(C)C[C@@H]1NC(=O)[C@H](Cc2c[nH]c3ccccc23)NC(=O)[C@H]([C@@H](C)O)NC(=O)[C@@H]2CCCN2C(=O)[C@H]2CCCN2C(=O)[C@H](CCCCN)NC(=O)[C@H](C)NC(=O)[C@H](CCCCN)NC(=O)[C@H](CCCCN)NC(=O)[C@H](Cc2c[nH]c3ccccc23)NC(=O)[C@H](C)NC(=O)[C@H](CCCNC(=N)N)NC(=O)[C@H](CCCCN)NC(=O)[C@H](CCCCN)NC1=O
≥ 32 | CC(C)C[C@@H]1NC(=O)[C@H](Cc2c[nH]c3ccccc23)NC(=O)[C@H]([C@@H](C)O)NC(=O)[C@H]2CCCN2C(=O)[C@@H]2CCCN2C(=O)[C@H](CCCCN)NC(=O)[C@H](C)NC(=O)[C@H](CCN)NC(=O)[C@H](CCCN)NC(=O)[C@H](Cc2c[nH]c3ccccc23)NC(=O)[C@H](CCCNC(=N)N)NC(=O)[C@@H](CCCCN)NC(=O)[C@H](CCCN)NC(=O)[C@H](CCN)NC1=O
> 16 | CC(C)C[C@@H]1NC(=O)[C@H](C)NC(=O)[C@H]([C@@H](C)O)NC(=O)[C@@H]2CCCN2C(=O)[C@H]2CCCN2C(=O)[C@H](CCCCN)NC(=O)[C@H](C)NC(=O)[C@H](CCCCN)NC(=O)[C@H](CCCCN)NC(=O)[C@H](Cc2c[nH]c3ccccc23)NC(=O)[C@H](CCCNC(=N)N)NC(=O)[C@H](CCCNC(=N)N)NC(=O)[C@H](CCCCN)NC(=O)[C@H](CCCCN)NC1=O
0.01 (≈ 0.00554 µM) | CC(C)C[C@@H]1NC(=O)[C@H](Cc2c[nH]c3ccccc23)NC(=O)[C@H]([C@@H](C)O)NC(=O)[C@@H]2CCCN2C(=O)[C@H]2CCCN2C(=O)[C@H](CCCCN)NC(=O)[C@H](C)NC(=O)[C@H](CCCCN)NC(=O)[C@H](CCCCN)NC(=O)[C@H](Cc2c[nH]c3ccccc23)NC(=O)[C@H](CCCNC(=N)N)NC(=O)[C@H](CCCNC(=N)N)NC(=O)[C@H](CCCCN)NC(=O)[C@H](CCCCN)NC1=O
> 16 | CC(C)C[C@@H]1NC(=O)[C@H](Cc2c[nH]c3ccccc23)NC(=O)[C@H]([C@@H](C)O)NC(=O)[C@@H]2CCCN2C(=O)[C@H]2CCCN2C(=O)[C@H](CCCCN)NC(=O)[C@H](C)NC(=O)[C@H](CCCCN)NC(=O)[C@H](CCCCN)NC(=O)[C@H](C)NC(=O)[C@H](CCCNC(=N)N)NC(=O)[C@H](CCCNC(=N)N)NC(=O)[C@H](CCCCN)NC(=O)[C@H](CCCCN)NC1=O
0.03 (≈ 0.0172 µM) | CC(C)C[C@@H]1NC(=O)[C@H](Cc2c[nH]c3ccccc23)NC(=O)[C@H]([C@@H](C)O)NC(=O)[C@@H]2CCCN2C(=O)[C@H]2CCCN2C(=O)[C@H](C)NC(=O)[C@H](C)NC(=O)[C@H](CCCCN)NC(=O)[C@H](CCCCN)NC(=O)[C@H](Cc2c[nH]c3ccccc23)NC(=O)[C@H](CCCNC(=N)N)NC(=O)[C@H](CCCNC(=N)N)NC(=O)[C@H](CCCCN)NC(=O)[C@H](CCCCN)NC1=O
0.01 (≈ 0.00563 µM) | CC(C)C[C@@H]1NC(=O)[C@H](Cc2c[nH]c3ccccc23)NC(=O)[C@H](C)NC(=O)[C@@H]2CCCN2C(=O)[C@H]2CCCN2C(=O)[C@H](CCCCN)NC(=O)[C@H](C)NC(=O)[C@H](CCCCN)NC(=O)[C@H](CCCCN)NC(=O)[C@H](Cc2c[nH]c3ccccc23)NC(=O)[C@H](CCCNC(=N)N)NC(=O)[C@H](CCCNC(=N)N)NC(=O)[C@H](CCCCN)NC(=O)[C@H](CCCCN)NC1=O
0.1 (≈ 0.0577 µM) | CC(C)C[C@@H]1NC(=O)[C@H](CCCNC(=N)N)NC(=O)[C@H](CCCNC(=N)N)NC(=O)[C@H](CCCCN)NC(=O)[C@H](CCCCN)NC(=O)[C@H](CC(C)C)NC(=O)[C@H](Cc2c[nH]c3ccccc23)NC(=O)[C@H]([C@@H](C)O)NC(=O)[C@@H]2CCCN2C(=O)[C@H]2CCCN2C(=O)[C@H](CCCCN)NC(=O)[C@H](C)NC(=O)[C@H](CCCCN)NC(=O)[C@H](CCCCN)NC1=O
0.06 (≈ 0.0343 µM) | CC(C)C[C@@H]1NC(=O)[C@H](Cc2c[nH]c3ccccc23)NC(=O)[C@H]([C@@H](C)O)NC(=O)[C@@H]2CCCN2C(=O)[C@H]2CCCN2C(=O)[C@H](CCCCN)NC(=O)[C@H](C)NC(=O)[C@H](C)NC(=O)[C@H](CCCCN)NC(=O)[C@H](Cc2c[nH]c3ccccc23)NC(=O)[C@H](CCCNC(=N)N)NC(=O)[C@H](CCCNC(=N)N)NC(=O)[C@H](CCCCN)NC(=O)[C@H](CCCCN)NC1=O

From ChEMBL document CHEMBL2417492, “Structural studies of β-hairpin peptidomimetic antibiotics that target LptD in Pseudomonas sp” (2013)
